Assay results as given in patent US20260193647A1, “MIRNA-BASED CANCER THERAPY WITH A TUMOR-NAVIGATING PEPTIDE” (The Board of Trustees of the Universities of Illinois, priority 2022, published 2026).

Key:
[1] = system: genes associated with the EGFR, p53 and TGF pathways; experiment: qPCR of downstream targets of miR-20a; type: cell-based, human; details: 10 nM, 24 hr
LN-229 cells = experiment: CCK-8 cell viability assay, LN-229; type: cell-based, human; details: 24 hr
Description: (§2) Cell viability was evaluated by a CCK-8 assay (Dojindo, Japan). Cells were seeded at a density of 4,000 cells per well in 100 μl of growth medium in 96-well plates and grown overnight. Then, the cells were exposed to antisense miR-20a alone, p28 alone or negative control or AmiR20-p28 over a range of concentrations and incubated for 24 hr. According to the manufacturer's instructions, 10 μl of CCK-8 solution was added to each well, followed by incubation for 1 hr at 37° C. The absorbance at 450 nm was determined by a multiplate reader.
(§3) Cell viability (%)=Abs(sample)−Abs(blank)/Abs(no treatment)−Abs(blank)×100

miR-20a [2] = experiment: miR-20a levels in resected tumor tissues of treated mice; type: in vivo; details: 1 mg/kg 3 times a week for one week; vs PBS-treated mice
Description: (§1) Micro RNA enriched fraction was extracted using the miRNeasy Mini Kit (Qiagen, Catalog #217004) following the manufacturer's instructions. Stem loop real-time qPCR was used to analyze miRNA expression. We designed miR-20a stem loop RT primers and amplification primers according to a previously described method 79. cDNA was synthesized from extracted RNA using unique stem loop RT primers. The sequence of the stem loop primer for miR-20a was 5′-[…]-3′ (SEQ ID NO:7). Reverse transcriptase reactions contained the following reagents: 10 ng of RNA sample, 60 nM stem-loop RT primer, 1×RT buffer, 0.25 mM dNTP, and 4 U/μl reverse transcriptase. Reactions were performed by incubation at 16° C. for 30 min, 42° C. for 30 min and 85° C. for 5 min. Real-time PCR (7300 Real time PCR Systems, Applied Biosystems, CA) was performed using the specific forward primer for miR-20a (5′-[…]-3′ (SEQ ID NO:8)) and a universal reverse primer (5′-GTGCA GGGTC CGAGGT-3′ (SEQ ID NO:9)). […]
A quantitative analysis using human-specific Alu sequence (hAlu) was performed on samples collected from the isolated brain tissues. […] The amount of hAlu and mGAPDH DNA in the tissue was calculated by comparison with a standard curve, and the calculated amount of hAlu DNA was normalized against the relative quantity of mGAPDH. […]

[3] = parameters: species or system mice; details: mouse, in vivo
Description: Collected samples were fixed with buffered 3.7% formalin (Anatech) for 24 hr. Formalin was replaced with 70% ethanol following fixation. Samples were paraffin-embedded, and blocks were cut into 4 μm-thick sections and mounted onto slides which were processed for H&E staining. H&E-stained slides were analyzed by a pathologist blinded to the experimental groups.
Alanine transaminase (ALT) activity was measured using ALT assay kits (Sigma, #MAK052) and serum aspartate transaminase (AST) activities was measured using AST assay kits (Sigma, #MAK055) following the manufacturer's instructions. Briefly, serum samples at different dilutions, were reacted with ALT or AST reaction mixture and plated on 96-well plate, followed by reading at A450. The final calculations were done by comparing the sample readings with that of standard curve (pyruvate standards for ALT and glutamate standards for AST).

CHLA-200 cells [4] = type: cell-based, human; details: 24 hr; read-out: IC50 (cell viability)
Description: as §2, §3

miR-20a [5] = experiment: Circulating miR-20a in sera of treated mice; type: in vivo; details: early-phase treatment group, 1 mg/kg; vs tumor-free mice (P=0.78)
Description: as §1, with “NO:9)). The 20-μl PCR mixture included 1×SYBR Premix (Invitrogen), 2 μl of RT products and each forward and reverse primer at 10 nM. Reactions were performed by incubation in a 96-well plate at 95° C. for 30 sec, followed by 35 cycles of 95° C. for 30 sec and 60° C. for 30 sec. U6 was used as an internal control to normalize the level of target miRNAs.” for “NO:9)).”

[6] = system: MDA-MB231, SKOV3, Mia-Paca2, Colon 205 and DU145 cells; experiment: CCK-8 cell viability assay, other solid tumor cells; type: cell-based, human; details: 10 nM
Description: as §2

CHLA-200 cells [7] = experiment: Annexin V/PI flow cytometric apoptosis assay, CHLA-200; type: cell-based, human; details: 10 nM, 24 h
Description: Cells were seeded into 10-cm dishes and cultured overnight. Then, the cells were treated with 10 nM antisense miR-20a alone, p28 alone or AmiR20-p28 for 24 hr. Cells were washed with 1×PBS, detached with TrypleE (Invitrogen). and collected by centrifugation. Cells were washed and resuspended with 1× Annexin binding buffer (Life Technologies, catalog #V13242), and the cell density was maintained at 10^6 cells/ml. Subsequently, 5 μl of Annexin-V was added to 100 μl of the cell suspension, and the mixture was incubated for 15 min at room temperature. The cells were washed and incubated with 5 μl of PI for an additional 15 min on ice, washed and resuspended in 200 μl of buffer. Cells without treatment were used as controls. After washing, cells were subjected to flow cytometry (Gallios flow cytometer) and analyzed with Kaluza software to give the proportions of dead (top left quadrant), late apoptotic (top right quadrant), early apoptotic (bottom right quadrant) and viable (bottom left quadrant) cells.

For “AmiR20-p28: BBB-permeable tumor-navigating CPP p28 (Cys-p28) covalently linked to 2′ O-methyl antisense miR-20a (5′-maleimide)”, the EGFR expression levels ([1]; LN-229 cells) was “decreased EGFR expression levels”, the “expression of p53, p21, Bax and E2F” value ([1]; LN-229 cells) was “significantly increased” and the “expression levels of EGFR, Ras, MEK1, ERK1, c-Fos, c-Jun, β-catenin, TCF-1 and Lef1 genes” value ([1]; SJ-GBM2 and CHLA-200 cells) was “significantly decreased”. The “expressions of p53, p21, Bax, and E2F” value ([1]; SJ-GBM2 and CHLA-200 cells) was “robust increase”, the gene expression levels ([1]; normal human astrocytes) was “no significant effect on gene expression levels” and the IC50 (LN-229 cells) was 170 nM. For the same substance, the “effect on cell viability” value (LN-229 cells; compared to pGBM) was “less extensive”, the “miR-20a levels in tumor tissues” value (miR-20a [2]) was “significant decrease in miR-20a levels” and the “histology of heart, lung, liver, spleen, and kidney” value [3] was “no AmiR20-p28-related differences in histology”. The “adverse effects (hepatotoxicity assay, hemolysis assay, histological examination)” value ([3]; iv, 1 mg/kg) was “without apparent adverse effects”, the IC50 (CHLA-200 cells [4]) was 11 nM and the “serum miR-20a level” value (miR-20a [5]) was “not significantly different from the basal level in the tumor-free mice”. The “effect on the viability” value [6] was “little effect on the viability” and the “apoptotic cells increased by” value (CHLA-200 cells [7]) was 14%.
